Columns and labels:
3α-HSD [1] = target: T1, 3α-HSD (Rattus norvegicus, UniProt P23457); assay: Competitive inhibition of androsterone oxidation catalyzed by 3α-HSD, initial velocity conditions, method of Dixon; format: biochemical; settings: inhibition constants under initial velocity conditions, NADH formation at 340 nm, pH 7.0
T1 construct: The homogeneous 3α-HSD of rat liver cytosol; from tissue; host or cells: rat liver cytosol
T1 sequence (P23457 1-322): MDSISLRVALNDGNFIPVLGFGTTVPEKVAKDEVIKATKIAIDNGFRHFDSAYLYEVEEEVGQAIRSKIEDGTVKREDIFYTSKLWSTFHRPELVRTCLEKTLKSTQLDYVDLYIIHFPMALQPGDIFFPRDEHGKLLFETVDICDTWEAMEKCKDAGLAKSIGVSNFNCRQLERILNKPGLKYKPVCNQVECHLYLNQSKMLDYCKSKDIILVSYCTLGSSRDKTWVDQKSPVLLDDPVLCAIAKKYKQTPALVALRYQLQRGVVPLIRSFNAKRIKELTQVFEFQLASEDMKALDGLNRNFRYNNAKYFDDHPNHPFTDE
Description: Initial rates were determined spectrophotometrically by measuring the rate of NADH formation at 340 nM over 5 minutes in an assay containing 2.3 mM AND^+ in 0.1 M potassium phosphate buffer pH 7.0, with 4% acetonitrile (v/v) as a cosolvent in a 1 ml system. The assay was started by the addition of enzyme. […] From the slope of this plot, the Ki was determined.

3α-HSD [2] = target: T1, 3α-HSD; assay: Time and concentration dependent inactivation of 3α-HSD, method of Kitz and Wilson; format: biochemical; settings: for t1/2 life for the enzyme at saturating inactivator concentrations: Kitz and Wilson analysis; for Return of activity of inactivated enzyme by extensive dialysis: after inactivation; for Loss of 3α-HSD activity (inactivation): incubation of enzyme with inactivator; for KI (inactivation): independent determination from time dependent inactivation, 1/kapp vs 1/[Inhibitor], pH 7.0, read-out: Ki (Kitz and Wilson analysis of inactivation)
Description: The difference in the Ki 's determined from the two methods can probably be attributed to the difference in the binding order in the enzymatic mechanism.
Inactivation of […] (15 μM) was conducted in incubations (50 μl) of 10 mM potassium phosphate buffer pH 7.0 containing 1 mM EDTA and 4% acetonitrile as a cosolvent. Enzyme activity was followed over time by diluting an aliquot of the incubation mixture in a 1 ml assay containing 2.3 mM […] and 75 μM androsterone in 0.1 M potassium phosphate buffer, pH 7.0 containing 1 mM mercaptoethanol, with 4% acetonitrile as a cosolvent. Initial rates were determined as described in FIG. 1. Because of the 100 fold or greater dilution of the enzyme into the assay, the initial rate measured is an indication of the enzyme activity remaining at that time. Initial rates of inactivation (kapp 's) were determined from semilogarithmic plots of percent enzyme activity remaining versus time. Data was replotted (FIG. 2b) as 1 /kapp vs 1/[Inhibitor] from which kinact (the rate constant for enzyme inactivation) and Ki (the binding constant for compound (VII)) were determined.

[3] = in vivo; cited from earlier work

Row | Compound | Ki (3α-HSD [1]) [µM] | t1/2 life for the enzyme at saturating inactivator concentrations (3α-HSD [2]) [s] | Return of activity of inactivated enzyme by extensive dialysis (3α-HSD [2]) | Loss of 3α-HSD activity (inactivation) (3α-HSD [2]) | KI (inactivation) (3α-HSD [2]) [µM] | plasma t1/2 life [3] [s]
1 | O=C(CBr)Nc1cccc(Nc2ccccc2C(=O)O)c1 [Compound (VIII), N-(3-bromoacetamidophenyl) anthranilic acid] | 1.5 | 7.1 | cannot be returned by extensive dialysis | time and concentration dependent loss of 3α-HSD activity | 155 | 
2 | COc1ccc2c(c1)c(CC(=O)O)c(C)n2Cc1ccc(NC(=O)CBr)cc1 [Compound (VI), 1-(4-bromoacetamidobenzyl)-5-methoxy-2-methylindole-3-aceticacid] | 15 | 40.2 | cannot be returned by extensive dialysis | time and concentration dependent loss of 3α-HSD activity | 233 | 
3 | Cc1ccc(Cl)c(Nc2ccccc2C(=O)O)c1Cl [Meclofenamate (II), meclofenamic acid, reference compound] | 1.1 |  |  |  |  | 
4 | Cc1ccc(C(=O)c2ccc(CC(=O)O)n2C)cc1 [Tolmetin (IV), tolmetin, reference compound] | 29 |  |  |  |  | 
5 | COc1ccc2c(c1)c(CC(=O)O)c(C)n2C(=O)c1ccc(Cl)cc1 [Indomethacin (I), indomethacin, reference compound] | 0.835 |  |  |  |  | 
6 | O=C(CBr)Nc1ccc(Nc2ccccc2C(=O)O)cc1 [Compound (VII), N-(4-bromoacetamidophenyl) anthranilic acid] | 2.5 | 12.1 | cannot be returned by extensive dialysis | time and concentration dependent loss of 3α-HSD activity | 161 | 
7 | CC(=O)Oc1ccccc1C(=O)O [aspirin, acetyl salicylate] |  |  |  |  |  | 900

From patent US5187187A, “Irreversible ligands for nonsteroidal antiinflammatory drug and prostaglandin binding sites” (Trustees of the University of Pennsylvania, priority 1991, dated 1993)
